Results as given in ChEMBL document CHEMBL1146667, “Benzodiazepine-based selective inhibitors of mitochondrial F1F0 ATP hydrolase” (Bioorg Med Chem Lett, 2004).

Tests used:
[1] = target: T1, Mitochondrial complex V; ATP synthase (Bos taurus, UniProt P00829+P05630+P05631+P05632); assay: Inhibitory activity against bovine mitochondrial F1F0-ATP synthase; format: protein-complex assay
Cytochrome P450 2C9 [2] = target: T2, Cytochrome P450 2C9 (Homo sapiens, UniProt P11712); assay: Inhibitory activity against ccytochrome P450 2C9
[3] = target: T1, Mitochondrial complex V; ATP synthase; assay: Inhibitory activity against bovine mitochondrial F1F0-ATP hydrolase; format: protein-complex assay
Cytochrome P450 2C9 [4] = target: T2, Cytochrome P450 2C9; assay: Inhibitory activity against cytochrome P450 2C9; format: ADME

T2 sequence (P11712 whole entry): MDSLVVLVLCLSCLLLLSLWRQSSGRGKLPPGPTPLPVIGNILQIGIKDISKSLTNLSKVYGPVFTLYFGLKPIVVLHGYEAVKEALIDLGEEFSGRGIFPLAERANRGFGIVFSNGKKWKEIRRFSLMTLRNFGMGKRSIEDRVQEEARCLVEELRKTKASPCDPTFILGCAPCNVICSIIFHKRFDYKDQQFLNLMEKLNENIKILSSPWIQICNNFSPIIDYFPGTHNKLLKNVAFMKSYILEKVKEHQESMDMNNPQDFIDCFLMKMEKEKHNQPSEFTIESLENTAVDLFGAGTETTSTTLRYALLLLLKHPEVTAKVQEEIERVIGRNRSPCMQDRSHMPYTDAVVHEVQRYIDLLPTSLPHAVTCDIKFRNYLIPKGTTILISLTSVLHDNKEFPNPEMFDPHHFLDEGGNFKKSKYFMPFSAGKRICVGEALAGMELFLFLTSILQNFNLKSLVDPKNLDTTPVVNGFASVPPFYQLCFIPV
T1 sequence (P05632 whole entry): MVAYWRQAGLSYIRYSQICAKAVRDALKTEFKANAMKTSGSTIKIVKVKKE
T1 sequence (P00829 whole entry): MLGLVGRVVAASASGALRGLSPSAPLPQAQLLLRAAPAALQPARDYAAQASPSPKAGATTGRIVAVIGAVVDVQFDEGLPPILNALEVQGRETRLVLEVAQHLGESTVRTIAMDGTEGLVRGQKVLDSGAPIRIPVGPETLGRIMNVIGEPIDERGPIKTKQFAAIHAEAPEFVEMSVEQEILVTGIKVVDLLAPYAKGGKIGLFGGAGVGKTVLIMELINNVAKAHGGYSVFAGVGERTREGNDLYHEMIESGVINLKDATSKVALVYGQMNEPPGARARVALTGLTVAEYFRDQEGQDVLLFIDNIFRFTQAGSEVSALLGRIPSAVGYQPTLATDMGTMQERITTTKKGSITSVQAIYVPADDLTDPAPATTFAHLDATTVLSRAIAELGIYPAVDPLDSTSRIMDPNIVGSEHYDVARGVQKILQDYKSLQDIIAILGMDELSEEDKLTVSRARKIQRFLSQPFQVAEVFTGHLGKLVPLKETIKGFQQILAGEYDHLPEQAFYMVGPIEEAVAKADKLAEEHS
T1 sequence (P05631 whole entry): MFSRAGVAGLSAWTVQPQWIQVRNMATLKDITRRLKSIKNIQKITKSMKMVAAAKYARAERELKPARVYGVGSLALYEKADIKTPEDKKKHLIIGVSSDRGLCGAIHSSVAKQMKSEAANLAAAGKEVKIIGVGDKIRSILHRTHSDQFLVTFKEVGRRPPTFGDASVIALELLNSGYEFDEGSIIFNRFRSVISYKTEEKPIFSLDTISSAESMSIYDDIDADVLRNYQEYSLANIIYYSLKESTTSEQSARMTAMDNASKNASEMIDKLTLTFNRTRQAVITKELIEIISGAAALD
T1 sequence (P05630 whole entry): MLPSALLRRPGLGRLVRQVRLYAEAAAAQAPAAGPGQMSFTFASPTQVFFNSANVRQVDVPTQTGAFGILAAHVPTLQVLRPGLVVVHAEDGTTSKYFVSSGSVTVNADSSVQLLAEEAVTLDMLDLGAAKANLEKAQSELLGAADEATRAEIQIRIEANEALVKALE

| SMILES | IC50 [1] [nM] | IC50 (Cytochrome P450 2C9 [2]) [nM] | IC50 [3] [nM] | IC50 (Cytochrome P450 2C9 [4]) [nM] |
| --- | --- | --- | --- | --- |
| CC(C)(C)c1ccc(S(=O)(=O)N2Cc3ccccc3N(Cc3c[nH]cn3)C(CCc3ccccc3)C2)cc1 (centres undefined) | > 30000 | 38 | 8 |  |
| O=S(=O)(N1Cc2ccccc2N(Cc2c[nH]cn2)C(CCc2ccccc2)C1)C(F)(F)F (centres undefined) | > 30000 |  | 77 |  |
| O=S(=O)(c1cccc2ccccc12)N1Cc2ccccc2N(Cc2cnc[nH]2)C(CCc2ccccc2)C1 (centres undefined) | > 30000 |  | 338 |  |
| O=S(=O)(c1ccc(F)cc1)N1Cc2ccccc2N(Cc2c[nH]cn2)C(CCc2ccccc2)C1 (centres undefined) | > 30000 |  | 221 |  |
| CC(C)(C)c1ccc(S(=O)(=O)N2Cc3ccccc3N(Cc3ncc[nH]3)C(CCc3ccccc3)C2)cc1 (centres undefined) | > 30000 |  | > 10000 |  |
| O=S(=O)(c1cc(Cl)ccc1Cl)N1Cc2ccccc2N(Cc2cnc[nH]2)C(CCc2ccccc2)C1 (centres undefined) | > 30000 |  | 158 |  |
| Cc1nc[nH]c1CN1c2ccccc2CN(Cc2ccc(C(C)(C)C)cc2)CC1CCc1ccccc1 (centres undefined) | > 30000 |  | 2350 |  |
| Cc1nc(CN2c3ccccc3CN(S(=O)(=O)c3ccc(F)cc3)CC2CCc2ccccc2)c[nH]1 (centres undefined) | > 30000 |  | 9620 |  |
| Cc1nc[nH]c1CN1c2ccccc2CN(S(=O)(=O)c2ccc(Cl)c(Cl)c2)CC1CCc1ccccc1 (centres undefined) | > 30000 |  | 22 | 2000 |
| COc1ccc(S(=O)(=O)N2Cc3ccccc3N(Cc3c[nH]cn3)C(CCc3ccccc3)C2)cc1 (centres undefined) | > 30000 |  | 77 |  |
| Cc1[nH]cnc1CN1c2ccccc2CN(S(=O)(=O)c2ccc(C(C)(C)C)cc2)CC1CCc1ccccc1 (centres undefined) | > 30000 |  | 77 | 3000 |
| N#Cc1ccc(S(=O)(=O)N2Cc3ccccc3N(Cc3cnc[nH]3)C(CCc3ccccc3)C2)cc1 (centres undefined) | > 30000 |  | 255 |  |
| O=S(=O)(c1cccc2cccnc12)N1Cc2ccccc2N(Cc2c[nH]cn2)C(CCc2ccccc2)C1 (centres undefined) | > 30000 |  | 2930 |  |
| O=S(=O)(Cc1ccccc1)N1Cc2ccccc2N(Cc2c[nH]cn2)C(CCc2ccccc2)C1 (centres undefined) | > 30000 |  | 2410 |  |
| O=S(=O)(c1ccccc1)N1Cc2ccccc2N(Cc2cnc[nH]2)C(CCc2ccccc2)C1 (centres undefined) | > 30000 |  | 282 |  |
| O=S(=O)(c1ccc(O)cc1)N1Cc2ccccc2N(Cc2cnc[nH]2)C(CCc2ccccc2)C1 (centres undefined) | > 30000 |  | 667 |  |
| O=S(=O)(c1cccs1)N1Cc2ccccc2N(Cc2cnc[nH]2)C(CCc2ccccc2)C1 (centres undefined) | > 30000 |  | 636 |  |
| CC(C)(C)c1ccc(CN2Cc3ccccc3N(Cc3cnc[nH]3)C(CCc3ccccc3)C2)cc1 (centres undefined) | > 30000 |  | 2140 |  |
| O=[N+]([O-])c1cccc(S(=O)(=O)N2Cc3ccccc3N(Cc3cnc[nH]3)C(CCc3ccccc3)C2)c1 (centres undefined) | > 30000 |  | 423 |  |
| CC(=O)Nc1ccc(S(=O)(=O)N2Cc3ccccc3N(Cc3cnc[nH]3)C(CCc3ccccc3)C2)cc1 (centres undefined) | > 30000 |  | 2980 |  |
| Cc1nc[nH]c1CN1c2ccccc2CN(S(=O)(=O)c2ccc(F)cc2)CC1CCc1ccccc1 (centres undefined) | > 30000 |  | 151 |  |
| N#Cc1ccc(S(=O)(=O)N2Cc3ccccc3N(Cc3c[nH]cn3)C(CCc3ccccc3)C2)c(Cl)c1 (centres undefined) | > 30000 |  | 939 |  |
| O=S(=O)(c1cccc2nonc12)N1Cc2ccccc2N(Cc2cnc[nH]2)C(CCc2ccccc2)C1 (centres undefined) | > 30000 |  | 1780 |  |
